Results published in patent publication US20260014133A1, “SUBSTITUTED 3-(l-OXOISOINDOLIN-2-YL)PIPERIDINE-2,6-DIONE/2-(2,6-DIOXOPIPERIDIN-3-YL)ISOINDOLINE-l,3-DIONE ANALOGS AS MODULATORS OF CEREBLON PROTEIN” (St. Jude's Chidren's Research Hospital, Inc., priority 2022, published 2026).

Molecular target: 6×His-CRBN-DDB1 protein (Homo sapiens (Human), UniProt Q96SW2)
Experiment: CRBN Fluorescence Polarization Assay
Format: binding
Settings: competitive fluorescence polarization; Cy5-O-Len probe 30 nM, 6×His-CRBN-DDB1 200 nM; 1 hour at room temperature; mean of three independent determinations; read-out: CRBN FP (IC50)
Procedure: In this competitive fluorescent polarization assay Cy5 conjugated lenalidomide analog (Cy5-O-Len)^13 was used as a fluorescent probe. 6×His-CRBN-DDB1 protein (200 nM) and Cy5-O-Len probe (30 nM) were combined in 20 mM HEPES pH 7, 150 mM NaCl, 0.005% Tween-20 assay buffer. 20 μL of this assay cocktail was dispensed into wells of Corning 3821 black 384-well plates. Compounds were transferred to the assay plate from a dose-response plate using a Pintool on a Biomek FXP Laboratory Automation Workstation (Beckman Coulter). The plates were incubated in the dark for 1 hour at room temperature and then read on an Envision plate reader (PerkinElmer, Massachusetts, USA). IC50 values were determined using a proprietary software RISE (Robust Investigation of Screening Experiments), developed in house on the Pipeline Pilot platform (Biovia, v. 17.2.0). Data represent the mean of three independent determinations.
Cereblon binding activity was determined as described herein above, and the results are provided below in Table 2 for representative disclosed compounds. Compound number (“Cmpd No.”) refers to the compound number (and associated compound information such as structure, name, etc.) as provided in Table 1. In Table 2 below: cereblon binding IC50 values are categorized as follows: “A” represents IC50 value<1 μM, “B” represents IC50 value between 1 and 10 μM, and “C” represents IC50 value>10 μM.

Chain of 6×His-CRBN-DDB1 protein (Q96SW2 whole entry): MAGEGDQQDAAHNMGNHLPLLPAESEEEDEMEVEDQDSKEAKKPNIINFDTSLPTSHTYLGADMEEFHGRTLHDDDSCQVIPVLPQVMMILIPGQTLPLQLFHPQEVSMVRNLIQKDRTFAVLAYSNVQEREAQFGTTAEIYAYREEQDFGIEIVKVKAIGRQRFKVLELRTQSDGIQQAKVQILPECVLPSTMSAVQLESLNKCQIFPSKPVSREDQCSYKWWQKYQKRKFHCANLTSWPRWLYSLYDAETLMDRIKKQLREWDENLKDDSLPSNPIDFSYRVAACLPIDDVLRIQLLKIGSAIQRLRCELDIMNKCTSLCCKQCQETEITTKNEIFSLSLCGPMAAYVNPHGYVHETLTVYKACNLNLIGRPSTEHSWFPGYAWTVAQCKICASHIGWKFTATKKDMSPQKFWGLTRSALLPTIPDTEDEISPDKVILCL
Chain of 6×His-CRBN-DDB1 protein (Q16531 whole entry partner): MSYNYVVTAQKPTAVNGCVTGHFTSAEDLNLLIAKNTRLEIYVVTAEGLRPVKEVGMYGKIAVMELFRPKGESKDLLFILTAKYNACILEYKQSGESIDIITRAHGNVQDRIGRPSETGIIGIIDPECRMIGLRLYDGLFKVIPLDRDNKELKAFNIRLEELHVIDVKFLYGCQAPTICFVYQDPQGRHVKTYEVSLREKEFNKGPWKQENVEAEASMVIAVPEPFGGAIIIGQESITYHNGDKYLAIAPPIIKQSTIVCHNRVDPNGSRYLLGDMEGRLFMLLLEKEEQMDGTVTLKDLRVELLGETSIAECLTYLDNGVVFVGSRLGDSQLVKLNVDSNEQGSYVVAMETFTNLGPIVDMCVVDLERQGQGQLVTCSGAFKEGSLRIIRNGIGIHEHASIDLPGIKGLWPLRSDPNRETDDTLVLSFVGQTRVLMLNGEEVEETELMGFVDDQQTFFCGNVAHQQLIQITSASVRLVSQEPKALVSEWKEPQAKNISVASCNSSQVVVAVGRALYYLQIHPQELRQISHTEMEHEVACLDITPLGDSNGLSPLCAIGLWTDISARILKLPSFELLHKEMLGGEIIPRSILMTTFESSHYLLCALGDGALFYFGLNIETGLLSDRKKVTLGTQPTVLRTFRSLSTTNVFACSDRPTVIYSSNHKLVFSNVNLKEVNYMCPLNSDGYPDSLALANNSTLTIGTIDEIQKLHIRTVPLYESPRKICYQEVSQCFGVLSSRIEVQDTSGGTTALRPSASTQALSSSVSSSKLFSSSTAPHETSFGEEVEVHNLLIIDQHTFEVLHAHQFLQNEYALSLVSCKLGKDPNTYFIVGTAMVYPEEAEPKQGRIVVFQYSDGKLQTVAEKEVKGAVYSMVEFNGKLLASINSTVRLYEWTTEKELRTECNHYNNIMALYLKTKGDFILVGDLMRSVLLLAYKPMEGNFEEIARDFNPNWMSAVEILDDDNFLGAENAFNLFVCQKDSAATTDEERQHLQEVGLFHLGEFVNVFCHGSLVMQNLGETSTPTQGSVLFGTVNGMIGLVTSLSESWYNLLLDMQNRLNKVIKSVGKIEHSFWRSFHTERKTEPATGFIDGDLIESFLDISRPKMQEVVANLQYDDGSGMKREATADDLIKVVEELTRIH

Structure (SMILES) | IC50 [nM]
COc1cc(F)cc(C(=O)Nc2ccc3c(c2)CN(C2CCC(=O)NC2=O)C3=O)c1 (stereo not shown) [Compound 59, N-(2-(2,6-dioxopiperidin-3-yl)-1-oxoisoindolin-5-yl)-3-fluoro-5-methoxybenzamide] | 1000 to 10000
CN(C)c1cccc(C(=O)Nc2ccc3c(c2)CN(C2CCC(=O)NC2=O)C3=O)c1 (stereo not shown) [Compound 60, 3-(dimethylamino)-N-(2-(2,6-dioxopiperidin-3-yl)-1-oxoisoindolin-5-yl)benzamide] | 1000 to 10000
COc1cc(C)cc(C(=O)Nc2ccc3c(c2)CN(C2CCC(=O)NC2=O)C3=O)c1 (stereo not shown) [Compound 61, N-(2-(2,6-dioxopiperidin-3-yl)-1-oxoisoindolin-5-yl)-3-methoxy-5-methylbenzamide] | 1000 to 10000
O=C1CCC(N2Cc3cc(Nc4noc5cc(F)ccc45)ccc3C2=O)C(=O)N1 (stereo not shown) [Compound 62, 3-(5-((6-fluorobenzo[d]isoxazol-3-yl)amino)-1-oxoisoindolin-2-yl)piperidine-2,6-dione] | < 1000

The remaining lines, values ahead:

IC50 [nM] | Structure (SMILES)
1000 to 10000 | O=C1CCC(N2Cc3cc(Nc4nc5ccccc5s4)ccc3C2=O)C(=O)N1 (stereo not shown) [Compound 63, 3-(5-(benzo[d]thiazol-2-ylamino)-1-oxoisoindolin-2-yl)piperidine-2,6-dione]
< 1000 | O=C1CCC(N2Cc3cc(NC(=O)COc4ccccc4)ccc3C2=O)C(=O)N1 (stereo not shown) [Compound 64, N-(2-(2,6-dioxopiperidin-3-yl)-1-oxoisoindolin-5-yl)-2-phenoxyacetamide]
< 1000 | O=C1CCC(N2Cc3cc(NC(=O)COCc4ccccc4)ccc3C2=O)C(=O)N1 (stereo not shown) [Compound 65, 2-(benzyloxy)-N-(2-(2,6-dioxopiperidin-3-yl)-1-oxolsoindolin-5-yl)acetamide]
